Experiment: Water gain (moisture uptake) of treated cotton swatches, no rinse / with rinse
Format: physicochemical
Details: dried
Method: Table 2: Water gain (mg) for cotton swatches with different treatments. […] No-rinse samples were treated, dried then incubated to monitor moisture uptake. With rinse samples were treated, rinsed with water, dried then incubated to monitor moisture uptake. Control represents swatches treated with water only.
For table 2, the test method is as follows: For “no rinse”: 1×1 cm cotton swatches (triplicates) are placed into a weigh boat where each is labeled according to treatment type and number. Initial weights are recorded for each sample. 500 uL of polymer solution is applied to each cotton swatch sample then reweighed as wet weight. Samples are allowed to dry overnight at room temperature conditions. Sample weights are recorded in the following morning as “no rinse”. Samples are then placed on a tray in the incubator at 37° C., 3.3% CO2, and approximately 90% humidity (the metal tray at the bottom of the incubator has plenty of distilled water in the pan to ensure constant humidity). Opening and closing the incubator door frequently causes parameters to shift so minimizing this will ensure proper control over parameter. Samples are incubated for 8 hours then reweighed. The weights represent the moisture uptake ability for the treated samples. […] Samples are weighed and placed in the incubator the following morning similar to above described procedure and weights are recorded as “with rinse”.

Water gain (No Rinse, incubated 8 hours at 37° C., approximately 90% humidity): 393.3 mg | Water gain (With Rinse, rinsed with water, then incubated): 126.9 mg
Structure (SMILES): OCC(O)CO [40% glycerin, glycerin]

— patent US20110104080A1, “Oral Compositions for Treatment of Dry Mouth” (priority 2009, published 2011)
